Test results reported in patent publication US20240075123A1, “TREATMENT OF CANCERS AND INFECTIOUS DISEASES WITH KILLED INTACT BACTERIA” (priority 2022, published 2024).

What was measured:
healthy human volunteers = conditions: purified LPS, over 1,000 healthy human volunteers; cited from earlier work
human PBMCs = assay: Cytokine secretion by human PBMCs in vitro; assay type: cell-based; conditions: 48 hr, full titration peak/mean of triplicates; Study AB64785
Method: TLR ligands such as E. coli LPS, ds E. coli DNA, E. coli peptidoglycan (PGN), Flagellin, R848, Polyinosinic-polycytidylic acid (poly I:C), and CpG oligonucleotide (ODN) were also assessed in these studies. Initial experiments were carried out with incubation for 24, 48 and 72 hours, as well as with and without immune cell activation with anti-CD3. […] In addition, maximal induction of secretion of most cytokines and chemokines occurred after 48 hours. […] Essentially all cytokines and chemokines participate in activation of innate and/or adaptive (including anti-tumor and anti-viral) immune pathways, but can also induce significant toxicity if expressed in the wrong place, at the wrong time, for too long, or at an inappropriately high level.

Ramos NHL xenograft = assay: s.c. human Ramos NHL xenograft in CB17/SCID mice; set-up: species or system mouse; conditions: in vivo
Method: This was tested with the human Ramos NHL xenograft model in SCID mice, which lack B and T cells.
Maximum transient weight loss for all non-indomethacin groups was generally in the 5% to 10% range. […] However, cure of at least some percentage of the mice is possible with the 3-way combination as a repeat produced 2/4 durable regressions in mice.
The 5 tumor-regressed mice were re-challenged with fresh Ramos tumor cells (opposite flank from first challenge) on Day 74. Only 2/5 tumors grew out, compared to 5/5 with naïve mice challenged with the same fresh tumor cells (FIG. 26). […] This has been reported previously with a small number of other agents, and is considered to be very difficult to achieve. Tumor regression with immunological memory via the innate immune system alone is very rare in preclinical models, but consistent with a multiple TLR agonist mechanism.

[1] = tested on: CT26.WT colorectal carcinoma; assay: s.c. CT26.WT, Decoy (DB104) with cyclophosphamide (CTX); assay type: in vivo, mouse; conditions: vs untreated mice; Decoy single agent all doses (p<0.05); CTX both schedules
Method: Mouse CT26.WT colorectal carcinoma cells were implanted (injected) into the right flank of BALB/c mice. Animals were randomized and treatments were initiated (Starting Day=SD) with a mean group tumor weight of 75 to 79 mg. […] A group of animals that received no treatment was used as the control.

[2] = tested on: A20 non-Hodgkin's lymphoma; assay: s.c. A20 lymphoma, repeat and immune cell depletion; assay type: in vivo, mouse; conditions: 212 mm^3 tumors; two weeks of treatment
Method: A group of untreated animals was used as the control. Treatment was started when the average tumor size was 212 mm^3. […] Combination with LDC produced 12% transient weight loss in the first week and 13.6% transient weight loss in the second week.
Tumor implantation was carried out during the depletion regimen. […] Extra mice in each group were sacrificed at the time of initiation of treatment in order to verify immune cell depletion. […] The positive control included 2 groups of 6 mice each (one group received indomethacin), with 10/12 CRs/regressions (6/6 regressions without indomethacin and 4/6 regressions with added indomethacin). […] Thus, in addition to immune activation associated with innate and adaptive immune cells, LPS provides a key bridging activity between the innate and adaptive immune systems.

[3] = tested on: A20 non-Hodgkin's lymphoma; assay: s.c. A20 lymphoma, Decoy dose and regimen with LDC; assay type: in vivo, mouse; conditions: LDC alone
Method: A group of untreated animals was used as the control. LDC alone was also tested. Treatment was initiated on Day 13 when the average tumor size was 158 mm^3.

CT26 tumors = assay: s.c. established CT26 tumors, Decoy with LDC; assay type: in vivo, mouse; conditions: Decoy alone 6.0×10^8; LDC 20 mg/kg i.p.; combination 3×10^8 Decoy + LDC
From the text: LDC alone produced a 57% ILS, which was statistically significant.

[4] = tested on: H22 hepatocellular carcinoma; conditions: mouse, in vivo
Method: Indomethacin was tested at 10 μg/mL in drinking water, p.o. ad libitum daily for either 4 or 7 weeks. […] Treatment was started when the average tumor size was 123 mm^3.

hepatitis B virus (HBV) [5] = assay: AAV-HBV mouse model of chronic HBV infection, first study; assay type: in vivo; conditions: for HBV replication (measured in blood): 5 weeks of dosing
Method: (§1) The anti-hepatitis B virus (HBV) efficacy of Decoy was evaluated in two studies. A standard pre-clinical model was used in which the human HBV genome is inserted in an adeno-associated virus (AAV). This hybrid construct is able to infect mouse hepatocytes, producing a chronic HBV-like infection with many of the hallmarks of human HBV infection, including high levels of HBV replication in liver and blood and production of HBe and HBs antigen (HBeAg and HBsAg). AAV-HBV virus is administered to mice and then blood titers of HBV DNA are monitored. Significant and relatively stable blood levels of HBV appear within 28-31 days, at which point treatment is initiated. Indomethacin was administered with Decoy in many groups in the first study, but not in the second study.
In the first study, Decoy (two different doses) was tested in combination with indomethacin and also in combination with the clinical standard of care, Entecavir (ETV). ETV and indomethacin were also tested as single agents (first study). […] In addition, ETV and mIFN-alpha were tested as single agents and in combination with Decoy (one dose).
Decoy-induced body weight loss was mild, transient (6% for […] in first week of treatment) and tapered off after the first week of treatment (tolerance phenomenon) (FIG. 28).

hepatitis B virus (HBV) [6] = assay: AAV-HBV mouse model of chronic HBV infection, second study; assay type: in vivo
Method: as §1
A group of untreated animals was included in the study. All treatment was well tolerated in AAV-HB V-infected mice.
No inhibition of other infection hallmarks was observed by mIFN-alpha.

[7] = tested on: Pan02 pancreatic carcinoma; assay: Intrasplenic Pan02 pancreatic carcinoma, second experiment; assay type: in vivo, mouse; conditions: single agents
From the text: A group of animals administered Decoy vehicle was used as the control.

[8] = tested on: Pan02 pancreatic carcinoma; assay: Intrasplenic Pan02 pancreatic carcinoma, first experiment; assay type: in vivo; conditions: Decoy 5×10^7 and 2×10^8 per mouse; gemcitabine 50 mg/kg i.p.
From the text: Pancreatic tumor cells were surgically implanted (injected) into the spleen of C57BL/6 female mice on Day 0. […] A group of untreated animals was used as the control. All untreated animals developed large tumors in the spleen, liver and pancreas, requiring termination around Day 30.

HIV-1 = assay: Chronic HIV humanized hu-mouse model; assay type: in vivo; conditions: 5 weeks of treatment
[9] = tested on: H22 hepatocellular carcinoma; assay: s.c. H22 hepatocellular carcinoma, second study (E0776-U1802); assay type: in vivo
Method: Indomethacin was tested at 10 μg/mL in drinking water, p.o. ad libitum daily for either 2 or 6 weeks. Anti-PD-1 was tested at 10 mg/kg, i.p. 2× per week for 2 weeks. Dosing was started when the average tumor size was 184 mm^3. A group of untreated animals was used as the control.

[10] = tested on: H22 hepatocellular carcinoma; assay: s.c. H22 hepatocellular carcinoma, first study (194 mm^3); assay type: in vivo; conditions: single agents; Decoy QD×2 weekly 6 weeks
Method: Treatment was initiated when the average tumor size was 194 mm^3. […] Indomethacin was administered at 10 μg/mL, p.o., ad libitum daily in drinking water×6 weeks (alone and in combinations) and anti-PD-1 was administered at 10 mg/kg, i.p., BIW×2 weeks (alone and in combinations). A group of animals that received no treatment was used as the control in the study.

H22 tumors = assay: s.c. H22 HCC, plasma cytokine/chemokine induction and one-week treatment; assay type: in vivo, mouse
Method: Female BALB/c mice with ˜200 mm^3 H22 tumors were randomized on Day-0 into 8 groups, each containing 3 sub-groups. All of the possible treatment approaches or combinations, including no treatment, were carried out. Mice from each of two subgroups from each group (5 mice per sub-group) were sacrificed 6 and 24 hours after no treatment, single, 2-way, or 3-way combination treatment. In the case of 2way and 3-way combination treatment, mice were sacrificed 6 and 24 hours after the first treatment instance of the second or third component of the combination. Plasma was prepared from each mouse and 32-plex ELISA-based cytokine/chemokine analysis was carried out. A third sub-group from each group (6 mice each) was treated for one week, with tumor volumes measured at randomization, once during the week and at the end of one week of treatment. Mice were sacrificed, then tumors were harvested and RNA was isolated. The 48 RNA samples were analyzed for expression of 770 genes involved in immune response pathways, using NanoString technology.
Indomethacin induced expression of only 2/32 cytokines/chemokines, and only at 6 hours after initiation of treatment. […] There was no increase in weight loss in any of the combination groups, relative to single agent treatment. […]

lipopolysaccharide [LPS]
highest dose determined to be well-tolerated after IV administration (healthy human volunteers): 0.004 µg/kg
GM-CSF secretion by human PBMCs (human PBMCs): 175 pg/mL
IFNγ secretion by human PBMCs (human PBMCs): 29,416 pg/mL
IL-1β secretion by human PBMCs (human PBMCs): 4,631 pg/mL
IL-6 secretion by human PBMCs (human PBMCs): 54,174 pg/mL
IL-8 secretion by human PBMCs (human PBMCs): 143,459 pg/mL
IL-10 secretion by human PBMCs (human PBMCs): 3,542 pg/mL
IL-12p70 secretion by human PBMCs (human PBMCs): 109 pg/mL
TNFα secretion by human PBMCs (human PBMCs): 24,944 pg/mL

rituximab
single agent anti-tumor activity (Ramos NHL xenograft): inhibited or delayed

O=P1(N(CCCl)CCCl)NCCCO1 (stereo not drawn) [LDC, cyclophosphamide]
inhibition of tumor growth [1]: significant tumor growth inhibition
regressions [2]: without producing any regressions
tumor regression (group of 4) [3]: one
increased lifespan (% ILS) (CT26 tumors): 57%
single agent anti-tumor activity [4]: weak, but statistically significant

C=C1[C@H](CO)[C@@H](O)C[C@@H]1n1cnc2c(=O)[nH]c(N)nc21 [ETV, Entecavir]
HBV replication (measured in blood) (hepatitis B virus (HBV) [5]): significantly inhibited HBV replication
HBeAg and HBsAg in blood (hepatitis B virus (HBV) [5]; mouse, in vivo): not to reduce or inhibit production of HBeAg or HBsAg
inhibition of HBcAg in the liver (hepatitis B virus (HBV) [5]; mouse, in vivo): not
reduction of HBV in the liver (hepatitis B virus (HBV) [5]; mouse, in vivo): not
plasma HBV DNA levels (hepatitis B virus (HBV) [6]; Day 31 to Day 151, no indomethacin): reduced plasma HBV DNA levels
HBV DNA and HBeAg levels in mouse liver at termination (hepatitis B virus (HBV) [6]; mouse, in vivo): not
plasma HBsAg and HBeAg levels (hepatitis B virus (HBV) [6]; mouse, in vivo): not

Nc1ccn([C@@H]2O[C@H](CO)[C@@H](O)C2(F)F)c(=O)n1 [gemcitabine]
survival [7]: increased survival
median survival time [8]: significant increase in median survival
single agent anti-tumor activity [4]: weak, but statistically significant
weight loss [4]: 20%

COc1ccc2c(c1)c(CC(=O)O)c(C)n2C(=O)c1ccc(Cl)cc1 [indomethacin]
survival [7]: did not increase survival significantly
HIV viral load in plasma (HIV-1): inhibited HIV viral load
HBV replication (measured in blood) (hepatitis B virus (HBV) [5]): did not inhibit HBV replication
regressions ([9]; 6 week indomethacin treatment): did not see any regressions
regressions (6 animals per group) ([9]; indomethacin 2 weeks, indomethacin 2 weeks+anti-PD-1, Decoy QD×2 6 weeks+indomethacin 6 weeks): one
lifespan (ILS) ([9]; single agents, indomethacin 2 weeks and 6 weeks): statistically significant increase in lifespan
single agent anti-tumor activity (Ramos NHL xenograft): did not produce single agent activity
increase in life-span (% ILS) [10]: 30%
plasma cytokines/chemokines induced (of 32) (H22 tumors; 6 or 24 hours after treatment): 2/32
Tumor growth inhibition relative to no treatment (H22 tumors; after one week of treatment): 17%
Transient weight loss [4]: not seen

Polyinosinic-polycytidylic acid [Poly(I:C)]
GM-CSF secretion by human PBMCs (human PBMCs): 0 pg/mL
IFNγ secretion by human PBMCs (human PBMCs): 103 pg/mL
IL-1β secretion by human PBMCs (human PBMCs): 22 pg/mL
IL-6 secretion by human PBMCs (human PBMCs): 129 pg/mL
IL-8 secretion by human PBMCs (human PBMCs): 1,452 pg/mL
IL-10 secretion by human PBMCs (human PBMCs): 8 pg/mL
IL-12p70 secretion by human PBMCs (human PBMCs): 18 pg/mL
TNFα secretion by human PBMCs (human PBMCs): 208 pg/mL
